Data taken from ChEMBL document CHEMBL1201862, “PubChem BioAssay data set” (2004).
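Assay format: 96-well plates, 48-hour exposure. Here, GI50 denotes the concentration required for 50% inhibition of growth.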 The source made the active and inactive calls. Cut-off read from the data, not from the text of the source: active = GI50 up to about 1.1 µM and inactive = higher.

How the values were obtained:
Assay in all cases: DTP human tumour cell line panel, 48 h
786-0 = system: 786-0
A498 = system: A498
CAKI-1 = system: CAKI-1
COLO 205 = system: COLO 205
HCC 2998 = system: HCC 2998
HCT-116 = system: HCT-116
K562 = system: K562
KM12 = system: KM12
MDA-MB-231 = system: MDA-MB-231
MOLT-4 = system: MOLT-4
Malme-3M = system: Malme-3M
NCI-H226 = system: NCI-H226
NCI-H522 = system: NCI-H522
OVCAR-8 = system: OVCAR-8
RXF 393 = system: RXF 393
SF-295 = system: SF-295
SNB-19 = system: SNB-19
SW-620 = system: SW-620
TK-10 = system: TK-10
U-251 = system: U-251

Row | SMILES | GI50 (786-0) | GI50 (A498) | GI50 (CAKI-1) | GI50 (COLO 205) | GI50 (HCC 2998) | GI50 (HCT-116) | GI50 (K562) | GI50 (KM12) | GI50 (MDA-MB-231) | GI50 (MOLT-4) | GI50 (Malme-3M) | GI50 (NCI-H226) | GI50 (NCI-H522) | GI50 (OVCAR-8) | GI50 (RXF 393) | GI50 (SF-295) | GI50 (SNB-19) | GI50 (SW-620) | GI50 (TK-10) | GI50 (U-251)
1 | COc1ccc(CCN2C(=O)C=CC2=O)cc1OC | 3.07 µM (inactive) | 16.7 µM (inactive) | 13.3 µM (inactive) | 1.83 µM (inactive) | 17.4 µM (inactive) | 3.53 µM (inactive) | 2.59 µM (inactive) | 19.6 µM (inactive) | 14.1 µM (inactive) | 2.43 µM (inactive) | 13.8 µM (inactive) | 5.62 µM (inactive) | 1.52 µM (inactive) | 19.8 µM (inactive) | 4.9 µM (inactive) | 17.7 µM (inactive) | 19.5 µM (inactive) | 2.28 µM (inactive) | 15.2 µM (inactive) | 19.5 µM (inactive)
2 | COc1ccc(CSC2=C(C#N)C(=O)NC3(CCCCC3)S2)cc1 | 64.1 µM (inactive) | > 63.5 µM (inactive) | 77.6 µM (inactive) | > 61.8 µM (inactive) | 28.2 µM (inactive) | 44.5 µM (inactive) | > 50 µM (inactive) | – | > 76.4 µM (inactive) | 36.9 µM (inactive) | 54.5 µM (inactive) | > 100 µM (inactive) | 24.2 µM (inactive) | > 59.3 µM (inactive) | 30.5 µM (inactive) | 51.6 µM (inactive) | 54.5 µM (inactive) | 32.6 µM (inactive) | > 95.5 µM (inactive) | 48.4 µM (inactive)
3 | C[N+]1(C(CO)Cc2c[nH]c3ccccc23)Cc2ccccc2C1 (configuration not stated) | > 100 µM (inactive) | 66.5 µM (inactive) | > 100 µM (inactive) | > 100 µM (inactive) | > 100 µM (inactive) | > 100 µM (inactive) | 89.7 µM (inactive) | > 100 µM (inactive) | > 100 µM (inactive) | > 100 µM (inactive) | 13.7 µM (inactive) | > 100 µM (inactive) | 49.3 µM (inactive) | > 100 µM (inactive) | > 100 µM (inactive) | > 100 µM (inactive) | > 100 µM (inactive) | > 100 µM (inactive) | > 100 µM (inactive) | > 100 µM (inactive)
4 | CC(C)Cc1c(C#N)c(C#N)c(N)n1Cc1ccccc1 | > 100 µM (inactive) | > 100 µM (inactive) | > 100 µM (inactive) | > 100 µM (inactive) | > 100 µM (inactive) | > 100 µM (inactive) | > 100 µM (inactive) | > 100 µM (inactive) | > 100 µM (inactive) | > 100 µM (inactive) | > 100 µM (inactive) | > 100 µM (inactive) | > 100 µM (inactive) | > 100 µM (inactive) | > 100 µM (inactive) | > 100 µM (inactive) | > 100 µM (inactive) | > 100 µM (inactive) | > 100 µM (inactive) | > 100 µM (inactive)
5 | COC1(OC)C[C@H](C)[C@@]23O[C@]24C2=CC(=O)C=CC2=N[C@H]3C#C/C=C\C#C[C@]14O | 0.0675 µM (active) | 0.91 µM (active) | 0.284 µM (active) | 0.541 µM (active) | 0.67 µM (active) | 0.364 µM (active) | 0.359 µM (active) | 0.474 µM (active) | 0.621 µM (active) | 0.0187 µM (active) | 0.671 µM (active) | 0.7 µM (active) | 0.0469 µM (active) | 0.659 µM (active) | 0.537 µM (active) | 1.64 µM (inactive) | 1.55 µM (inactive) | 0.415 µM (active) | 0.893 µM (active) | 0.805 µM (active)
6 | Cc1nc(Nc2ccc(Cl)cc2Cl)sc1C(=O)Nc1ccccc1 | 53.6 µM (inactive) | > 100 µM (inactive) | 49.8 µM (inactive) | 26.2 µM (inactive) | 72.1 µM (inactive) | 35.1 µM (inactive) | 24 µM (inactive) | 35.8 µM (inactive) | 56.5 µM (inactive) | 10.9 µM (inactive) | > 100 µM (inactive) | < 0.01 µM (active) | 38.5 µM (inactive) | > 100 µM (inactive) | 33.3 µM (inactive) | 29.9 µM (inactive) | > 100 µM (inactive) | > 100 µM (inactive) | 57.4 µM (inactive) | 25.9 µM (inactive)
7 | O=[N+]([O-])c1cc(C2ON=C(c3ccccc3)N2C23CC4CC(CC(C4)C2)C3)ccc1Cl (configuration not stated) | > 100 µM (inactive) | > 100 µM (inactive) | > 100 µM (inactive) | > 100 µM (inactive) | > 100 µM (inactive) | 73.5 µM (inactive) | > 100 µM (inactive) | > 100 µM (inactive) | > 100 µM (inactive) | > 100 µM (inactive) | > 100 µM (inactive) | 49.5 µM (inactive) | > 100 µM (inactive) | > 100 µM (inactive) | > 100 µM (inactive) | > 100 µM (inactive) | > 100 µM (inactive) | – | > 100 µM (inactive) | > 100 µM (inactive)
8 | C[C@H]1CC(=O)C[C@@H]2CC[C@@H]3[C@H](CC[C@]4(C)C(OC(=O)c5cccc6c(=O)c7ccccc7[nH]c56)CC[C@@H]34)[C@]21C (some centres not stated) | 48 µM (inactive) | 30.1 µM (inactive) | 10 µM (inactive) | 22 µM (inactive) | 47 µM (inactive) | 33.3 µM (inactive) | 23.6 µM (inactive) | 30.4 µM (inactive) | 23.6 µM (inactive) | 5.28 µM (inactive) | 92.5 µM (inactive) | 28.2 µM (inactive) | 18.7 µM (inactive) | 23.8 µM (inactive) | 39.2 µM (inactive) | 38.5 µM (inactive) | > 100 µM (inactive) | 55.5 µM (inactive) | 64.7 µM (inactive) | 33.1 µM (inactive)
9 | CC(C)(CO[C@H]1C[C@H]2CC[C@@]1(C)C2(C)C)[N+](=O)[O-] | 14.3 µM (inactive) | 22.7 µM (inactive) | 20 µM (inactive) | 15.6 µM (inactive) | 2.07 µM (inactive) | 15.3 µM (inactive) | 13.9 µM (inactive) | 17.4 µM (inactive) | 18.1 µM (inactive) | 18.1 µM (inactive) | 20.3 µM (inactive) | 16.1 µM (inactive) | 20.4 µM (inactive) | 22.6 µM (inactive) | 11 µM (inactive) | 18.6 µM (inactive) | 14.1 µM (inactive) | 22.2 µM (inactive) | 17.1 µM (inactive) | 16.7 µM (inactive)
10 | CN(C)CCCNC(=O)c1cc(NC(=O)c2cc(NS(=O)(=O)c3ccc4c(c3)C(=O)c3ccccc3C4=O)cn2C)cn1C | > 100 µM (inactive) | > 100 µM (inactive) | > 100 µM (inactive) | 83.9 µM (inactive) | > 100 µM (inactive) | > 100 µM (inactive) | 52.6 µM (inactive) | 80.7 µM (inactive) | > 100 µM (inactive) | 24 µM (inactive) | 28.4 µM (inactive) | > 100 µM (inactive) | 93.5 µM (inactive) | > 100 µM (inactive) | > 100 µM (inactive) | > 100 µM (inactive) | 41.5 µM (inactive) | 94.8 µM (inactive) | > 100 µM (inactive) | 81.3 µM (inactive)
11 | O=C1/C(=C/c2ccccc2)CCc2ccc([N+](=O)[O-])cc21 | 28.4 µM (inactive) | > 78.7 µM (inactive) | > 100 µM (inactive) | > 100 µM (inactive) | > 88.3 µM (inactive) | 24.4 µM (inactive) | 15.9 µM (inactive) | 42.3 µM (inactive) | 69.3 µM (inactive) | 10.8 µM (inactive) | 46.8 µM (inactive) | > 100 µM (inactive) | 3.31 µM (inactive) | 82.6 µM (inactive) | 23.8 µM (inactive) | 33 µM (inactive) | 27.2 µM (inactive) | > 70 µM (inactive) | 60.1 µM (inactive) | 27.1 µM (inactive)
12 | CNC(=O)CCC(NC(=O)OC(C)(C)C)C(=O)NC(Cc1ccc(NC(=O)CCCCC(C)=O)cc1)C(=O)NCC(=O)NC (configuration not stated) | > 100 µM (inactive) | > 100 µM (inactive) | > 100 µM (inactive) | > 100 µM (inactive) | > 100 µM (inactive) | > 100 µM (inactive) | > 100 µM (inactive) | > 100 µM (inactive) | > 100 µM (inactive) | > 100 µM (inactive) | > 100 µM (inactive) | > 100 µM (inactive) | > 100 µM (inactive) | > 100 µM (inactive) | > 100 µM (inactive) | > 100 µM (inactive) | > 100 µM (inactive) | > 100 µM (inactive) | > 100 µM (inactive) | > 100 µM (inactive)
13 | O=S(=O)(O)C(CO)c1ccccc1.O=S(=O)(O)Cc1ccccc1 (configuration not stated) | > 100 µM (inactive) | > 100 µM (inactive) | > 100 µM (inactive) | > 100 µM (inactive) | > 100 µM (inactive) | > 100 µM (inactive) | > 100 µM (inactive) | > 100 µM (inactive) | > 100 µM (inactive) | > 100 µM (inactive) | > 100 µM (inactive) | > 100 µM (inactive) | > 100 µM (inactive) | > 100 µM (inactive) | > 100 µM (inactive) | > 100 µM (inactive) | > 100 µM (inactive) | > 100 µM (inactive) | > 100 µM (inactive) | > 100 µM (inactive)
14 | CCOC(=O)NNC(=O)NCCNC(=O)NNC(=O)OCC | > 100 µM (inactive) | > 100 µM (inactive) | > 100 µM (inactive) | > 100 µM (inactive) | > 100 µM (inactive) | > 100 µM (inactive) | > 100 µM (inactive) | > 100 µM (inactive) | > 100 µM (inactive) | > 100 µM (inactive) | > 100 µM (inactive) | 98.6 µM (inactive) | > 100 µM (inactive) | > 100 µM (inactive) | > 100 µM (inactive) | – | > 100 µM (inactive) | > 100 µM (inactive) | > 100 µM (inactive) | > 100 µM (inactive)
